The values that follow come from ChEMBL document CHEMBL6177941, “Recent advances from computer-aided drug design to artificial intelligence drug design” (RSC Med Chem, 2024).

The nature of test [1]: Inhibition of Poly-L-Histidine tagged full length recombinant Trypanosoma cruzi Sir2p extracted from Escherichia coli BL21 (DE) using Abz-Gly-Pro-AcetylLys-Ser-Gln-EDDnp peptide as substrate incubated for 30 mins by fluorescence based analysis.
For another test, the system named is VCaP. In words: Antiproliferative activity against human VCaP cells expressing ERG level assessed as reduction in cell viability incubated for 72 hrs by CCK8 assay.
The next test has as its target T1, Androgen receptor (Homo sapiens, UniProt P10275).
T1 sequence (P10275 whole entry): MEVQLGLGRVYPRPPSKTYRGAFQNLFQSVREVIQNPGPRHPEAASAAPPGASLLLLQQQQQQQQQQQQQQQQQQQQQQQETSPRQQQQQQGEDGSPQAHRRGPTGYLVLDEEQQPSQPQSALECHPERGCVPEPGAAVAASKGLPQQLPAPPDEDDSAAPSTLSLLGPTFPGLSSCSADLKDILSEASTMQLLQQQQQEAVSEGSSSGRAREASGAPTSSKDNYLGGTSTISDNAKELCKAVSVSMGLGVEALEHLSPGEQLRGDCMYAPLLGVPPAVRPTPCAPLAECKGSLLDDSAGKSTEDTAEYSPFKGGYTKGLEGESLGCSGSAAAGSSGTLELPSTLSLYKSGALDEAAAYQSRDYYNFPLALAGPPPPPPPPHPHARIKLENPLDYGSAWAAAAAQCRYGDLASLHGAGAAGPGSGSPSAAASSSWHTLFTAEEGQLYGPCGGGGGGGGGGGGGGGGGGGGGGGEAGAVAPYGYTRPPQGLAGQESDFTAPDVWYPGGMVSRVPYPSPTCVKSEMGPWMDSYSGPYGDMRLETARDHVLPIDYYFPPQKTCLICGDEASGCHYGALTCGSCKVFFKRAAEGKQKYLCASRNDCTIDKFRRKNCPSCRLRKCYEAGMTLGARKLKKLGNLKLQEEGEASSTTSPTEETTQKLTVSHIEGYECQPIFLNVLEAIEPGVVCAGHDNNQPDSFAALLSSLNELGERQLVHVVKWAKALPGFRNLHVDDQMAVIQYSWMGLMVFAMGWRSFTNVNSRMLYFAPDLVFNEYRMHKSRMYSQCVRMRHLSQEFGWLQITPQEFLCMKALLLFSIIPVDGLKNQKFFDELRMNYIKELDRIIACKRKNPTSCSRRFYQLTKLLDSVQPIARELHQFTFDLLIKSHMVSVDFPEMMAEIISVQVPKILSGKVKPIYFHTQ
In words: Inhibition of full length human Androgen receptor DNA binding domain dimerization.

Another test concerns the target Speckle-type POZ protein (Homo sapiens, UniProt O43791).
Another test has as its system MOLT-4. The test is described as follows: Antiproliferative activity against human MOLT-4 cells assessed as reduction in cell growth incubated for 72 hrs by Cell-titer glo luminescent cell viability assay. To be noted: MOLT-4, 72 h.
Test [2] deals with Tyrosine-protein kinase JAK2 (Homo sapiens, UniProt O60674). In words: Inhibition of JAK2 (unknown origin) by Z'-LYTE kinase assay.
For test [3], the target named is Rho-associated protein kinase 1 (Homo sapiens, UniProt Q13464).
Description: Binding affinity to N-terminal GST-tagged human ROCK1 catalytic domain (1 to 477 residues) expressed in Sf21 insect cells assessed as inhibition constant by NanoBRET intracellular kinase assay
Test [4] deals with Epithelial discoidin domain-containing receptor 1 (Homo sapiens, UniProt Q08345).
For another test, the system named is Escherichia coli. The test is described as follows: Antibacterial activity against Escherichia coli.
The target in test [5] is T2, Serine/threonine-protein kinase Sgk3 (Homo sapiens, UniProt Q96BR1).
T2 sequence (Q96BR1 whole entry): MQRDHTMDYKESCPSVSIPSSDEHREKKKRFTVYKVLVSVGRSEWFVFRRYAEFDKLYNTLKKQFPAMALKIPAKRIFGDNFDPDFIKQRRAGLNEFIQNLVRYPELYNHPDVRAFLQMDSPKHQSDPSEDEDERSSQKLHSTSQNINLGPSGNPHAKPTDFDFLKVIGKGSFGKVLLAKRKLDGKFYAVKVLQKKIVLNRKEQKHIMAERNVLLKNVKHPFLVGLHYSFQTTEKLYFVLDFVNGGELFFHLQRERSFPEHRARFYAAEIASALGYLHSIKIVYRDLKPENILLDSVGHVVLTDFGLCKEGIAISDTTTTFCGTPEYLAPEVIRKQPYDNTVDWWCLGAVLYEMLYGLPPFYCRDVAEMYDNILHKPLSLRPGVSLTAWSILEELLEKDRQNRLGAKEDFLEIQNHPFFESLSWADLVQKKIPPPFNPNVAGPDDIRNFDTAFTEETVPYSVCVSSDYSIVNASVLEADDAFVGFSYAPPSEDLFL
In words: Inhibition of SGK3 (unknown origin).

For test [6], the target named is 5-hydroxytryptamine receptor 2A (Homo sapiens, UniProt P28223). The test is described as follows: Agonist activity at human 5-HT2A receptor expressed in HEK293 cells incubated for 60 mins by BRET assay. Background: Bioluminescence resonance energy transfer reports proximity on the nanometre scale.
Another test concerns the target Cannabinoid receptor 2 (Homo sapiens, UniProt P34972). The test is described as follows: Binding affinity to human CB2 receptor assessed as inhibition constant.
For test [7], the system named is Staphylococcus aureus. In words: microbe, parasite or virus in culture. To be noted: ATCC 43300, 24 h.
Description: Antibacterial activity against methicillin-resistant Staphylococcus aureus ATCC 43300 assessed as reduction in bacterial growth incubated for 24 hrs by CLSI protocol based broth micro-dilution method
Test [8] concerns Staphylococcus aureus. The test is described as follows: microbe, parasite or virus in culture. Particulars: ATCC 35556, 24 h.
Description: Antibacterial activity against wild type Staphylococcus aureus ATCC 35556 assessed as reduction in bacterial growth incubated for 24 hrs by CLSI protocol based broth micro-dilution method
In test [9] the target is Myeloid differentiation primary response protein MyD88 (Homo sapiens, UniProt Q99836). The test is described as follows: Binding affinity to MYD88 Toll/interleukin-1 receptor domain (unknown origin) assessed as dissociation constant by SPR assay. (In general: SPR reads the build-up and loss of mass on a sensor chip optically.)
A further test has as its system Acinetobacter baumannii. The test is described as follows: microbe, parasite or virus in culture. To be noted: ATCC 17978.

Structures are written as SMILES. ≈ marks a conversion by molar mass, not a printed value.

Cannabinoid receptor 2, sequence (P34972 whole entry): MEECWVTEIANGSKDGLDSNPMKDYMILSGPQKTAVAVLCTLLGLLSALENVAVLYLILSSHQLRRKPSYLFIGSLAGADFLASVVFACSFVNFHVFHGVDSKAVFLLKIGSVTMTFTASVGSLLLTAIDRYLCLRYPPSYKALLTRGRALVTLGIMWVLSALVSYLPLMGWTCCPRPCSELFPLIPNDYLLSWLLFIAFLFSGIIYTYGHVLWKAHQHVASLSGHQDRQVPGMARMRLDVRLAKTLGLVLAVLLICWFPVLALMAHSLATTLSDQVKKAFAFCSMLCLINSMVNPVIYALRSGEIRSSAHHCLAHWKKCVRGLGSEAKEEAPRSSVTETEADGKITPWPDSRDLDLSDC
5-hydroxytryptamine receptor 2A, sequence (P28223 whole entry): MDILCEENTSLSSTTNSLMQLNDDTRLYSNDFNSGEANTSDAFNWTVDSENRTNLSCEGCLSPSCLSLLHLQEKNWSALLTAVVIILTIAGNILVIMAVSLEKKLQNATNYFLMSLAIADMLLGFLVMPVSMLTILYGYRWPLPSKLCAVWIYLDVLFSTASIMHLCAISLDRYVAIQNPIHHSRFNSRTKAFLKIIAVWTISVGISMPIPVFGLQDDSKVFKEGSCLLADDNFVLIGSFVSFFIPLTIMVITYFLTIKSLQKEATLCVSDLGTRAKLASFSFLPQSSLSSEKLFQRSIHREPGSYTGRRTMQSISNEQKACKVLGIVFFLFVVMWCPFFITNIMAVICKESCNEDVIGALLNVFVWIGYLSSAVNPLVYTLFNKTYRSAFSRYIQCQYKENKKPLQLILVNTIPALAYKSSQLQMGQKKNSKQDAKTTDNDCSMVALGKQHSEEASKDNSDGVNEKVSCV
Tyrosine-protein kinase JAK2, sequence (O60674 whole entry): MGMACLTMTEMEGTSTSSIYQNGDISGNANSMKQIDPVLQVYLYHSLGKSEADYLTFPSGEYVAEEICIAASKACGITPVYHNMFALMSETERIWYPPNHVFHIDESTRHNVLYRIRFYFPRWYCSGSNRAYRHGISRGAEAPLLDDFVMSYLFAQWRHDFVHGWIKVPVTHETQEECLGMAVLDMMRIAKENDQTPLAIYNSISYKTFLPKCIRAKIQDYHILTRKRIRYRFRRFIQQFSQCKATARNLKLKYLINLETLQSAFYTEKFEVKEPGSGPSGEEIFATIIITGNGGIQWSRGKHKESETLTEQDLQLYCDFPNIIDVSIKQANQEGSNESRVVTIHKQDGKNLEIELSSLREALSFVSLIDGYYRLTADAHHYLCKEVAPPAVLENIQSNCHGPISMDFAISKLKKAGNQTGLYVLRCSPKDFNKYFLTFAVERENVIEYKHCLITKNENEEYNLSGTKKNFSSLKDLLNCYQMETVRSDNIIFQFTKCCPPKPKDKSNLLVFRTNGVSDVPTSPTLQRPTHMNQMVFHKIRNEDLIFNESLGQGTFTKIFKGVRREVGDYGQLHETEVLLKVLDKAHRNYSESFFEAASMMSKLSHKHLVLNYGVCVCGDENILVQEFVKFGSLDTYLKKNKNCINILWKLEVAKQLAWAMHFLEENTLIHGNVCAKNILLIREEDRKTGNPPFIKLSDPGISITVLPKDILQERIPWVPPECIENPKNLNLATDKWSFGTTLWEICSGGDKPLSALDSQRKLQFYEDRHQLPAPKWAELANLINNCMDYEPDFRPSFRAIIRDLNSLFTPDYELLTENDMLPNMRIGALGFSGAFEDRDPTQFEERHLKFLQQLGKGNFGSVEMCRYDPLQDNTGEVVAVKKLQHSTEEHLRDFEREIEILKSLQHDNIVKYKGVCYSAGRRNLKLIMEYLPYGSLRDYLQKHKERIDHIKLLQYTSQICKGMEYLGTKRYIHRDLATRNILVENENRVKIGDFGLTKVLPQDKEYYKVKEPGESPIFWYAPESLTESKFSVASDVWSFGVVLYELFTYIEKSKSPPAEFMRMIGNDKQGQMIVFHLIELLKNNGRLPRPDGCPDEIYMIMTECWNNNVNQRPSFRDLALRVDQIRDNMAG
Myeloid differentiation primary response protein MyD88, sequence (Q99836 whole entry, the tested form may be a part): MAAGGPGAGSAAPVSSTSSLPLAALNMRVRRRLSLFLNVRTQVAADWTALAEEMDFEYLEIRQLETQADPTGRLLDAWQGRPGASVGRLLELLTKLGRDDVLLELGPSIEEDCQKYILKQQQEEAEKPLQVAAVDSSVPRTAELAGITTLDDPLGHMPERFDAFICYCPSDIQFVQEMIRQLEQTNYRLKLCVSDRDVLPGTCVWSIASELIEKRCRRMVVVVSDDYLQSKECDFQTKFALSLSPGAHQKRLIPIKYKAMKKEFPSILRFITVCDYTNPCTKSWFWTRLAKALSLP
Speckle-type POZ protein, sequence (O43791 whole entry): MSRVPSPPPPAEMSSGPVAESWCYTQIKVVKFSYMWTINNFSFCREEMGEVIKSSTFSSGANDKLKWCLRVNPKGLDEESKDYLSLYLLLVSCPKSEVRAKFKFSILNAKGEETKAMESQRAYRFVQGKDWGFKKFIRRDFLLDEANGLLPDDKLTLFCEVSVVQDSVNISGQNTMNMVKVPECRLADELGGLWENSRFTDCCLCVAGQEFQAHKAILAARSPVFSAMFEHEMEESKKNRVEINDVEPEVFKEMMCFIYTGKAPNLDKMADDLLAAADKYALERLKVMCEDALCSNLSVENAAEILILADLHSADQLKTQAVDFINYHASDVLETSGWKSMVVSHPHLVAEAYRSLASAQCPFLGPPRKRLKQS
Rho-associated protein kinase 1, sequence (Q13464 whole entry, the tested form may be a part): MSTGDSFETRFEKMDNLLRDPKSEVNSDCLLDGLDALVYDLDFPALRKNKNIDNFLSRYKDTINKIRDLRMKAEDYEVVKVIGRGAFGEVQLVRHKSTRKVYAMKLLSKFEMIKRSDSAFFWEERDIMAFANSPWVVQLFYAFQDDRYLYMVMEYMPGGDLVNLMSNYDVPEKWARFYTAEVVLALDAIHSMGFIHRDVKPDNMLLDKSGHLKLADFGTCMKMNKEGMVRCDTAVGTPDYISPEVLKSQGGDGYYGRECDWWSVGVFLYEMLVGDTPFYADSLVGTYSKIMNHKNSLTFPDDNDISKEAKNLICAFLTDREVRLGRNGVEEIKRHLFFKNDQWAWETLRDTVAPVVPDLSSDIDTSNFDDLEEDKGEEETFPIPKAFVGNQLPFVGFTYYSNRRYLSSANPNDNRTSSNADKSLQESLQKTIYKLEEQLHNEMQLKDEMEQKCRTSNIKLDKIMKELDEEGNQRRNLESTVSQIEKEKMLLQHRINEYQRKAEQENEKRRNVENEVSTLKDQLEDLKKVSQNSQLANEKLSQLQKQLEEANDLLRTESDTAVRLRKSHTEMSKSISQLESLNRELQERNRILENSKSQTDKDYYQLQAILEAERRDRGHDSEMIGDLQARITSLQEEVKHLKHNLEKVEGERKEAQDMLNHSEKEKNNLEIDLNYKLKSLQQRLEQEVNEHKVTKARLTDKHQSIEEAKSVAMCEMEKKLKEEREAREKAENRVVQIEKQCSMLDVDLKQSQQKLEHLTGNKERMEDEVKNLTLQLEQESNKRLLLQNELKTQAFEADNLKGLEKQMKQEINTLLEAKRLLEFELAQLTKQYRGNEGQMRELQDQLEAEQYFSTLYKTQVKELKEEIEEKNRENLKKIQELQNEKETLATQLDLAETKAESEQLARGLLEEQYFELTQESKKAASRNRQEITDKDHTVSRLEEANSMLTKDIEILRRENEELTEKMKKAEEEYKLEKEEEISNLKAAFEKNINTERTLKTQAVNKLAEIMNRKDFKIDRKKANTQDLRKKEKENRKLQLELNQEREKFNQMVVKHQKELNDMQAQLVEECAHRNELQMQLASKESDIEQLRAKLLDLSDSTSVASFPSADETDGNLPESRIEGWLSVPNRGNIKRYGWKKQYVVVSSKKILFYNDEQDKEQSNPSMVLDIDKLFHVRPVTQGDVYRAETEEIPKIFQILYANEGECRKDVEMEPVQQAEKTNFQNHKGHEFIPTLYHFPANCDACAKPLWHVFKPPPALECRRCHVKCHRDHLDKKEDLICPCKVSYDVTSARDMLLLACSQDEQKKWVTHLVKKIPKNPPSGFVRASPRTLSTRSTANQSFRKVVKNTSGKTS
Epithelial discoidin domain-containing receptor 1, sequence (Q08345 whole entry, the tested form may be a part): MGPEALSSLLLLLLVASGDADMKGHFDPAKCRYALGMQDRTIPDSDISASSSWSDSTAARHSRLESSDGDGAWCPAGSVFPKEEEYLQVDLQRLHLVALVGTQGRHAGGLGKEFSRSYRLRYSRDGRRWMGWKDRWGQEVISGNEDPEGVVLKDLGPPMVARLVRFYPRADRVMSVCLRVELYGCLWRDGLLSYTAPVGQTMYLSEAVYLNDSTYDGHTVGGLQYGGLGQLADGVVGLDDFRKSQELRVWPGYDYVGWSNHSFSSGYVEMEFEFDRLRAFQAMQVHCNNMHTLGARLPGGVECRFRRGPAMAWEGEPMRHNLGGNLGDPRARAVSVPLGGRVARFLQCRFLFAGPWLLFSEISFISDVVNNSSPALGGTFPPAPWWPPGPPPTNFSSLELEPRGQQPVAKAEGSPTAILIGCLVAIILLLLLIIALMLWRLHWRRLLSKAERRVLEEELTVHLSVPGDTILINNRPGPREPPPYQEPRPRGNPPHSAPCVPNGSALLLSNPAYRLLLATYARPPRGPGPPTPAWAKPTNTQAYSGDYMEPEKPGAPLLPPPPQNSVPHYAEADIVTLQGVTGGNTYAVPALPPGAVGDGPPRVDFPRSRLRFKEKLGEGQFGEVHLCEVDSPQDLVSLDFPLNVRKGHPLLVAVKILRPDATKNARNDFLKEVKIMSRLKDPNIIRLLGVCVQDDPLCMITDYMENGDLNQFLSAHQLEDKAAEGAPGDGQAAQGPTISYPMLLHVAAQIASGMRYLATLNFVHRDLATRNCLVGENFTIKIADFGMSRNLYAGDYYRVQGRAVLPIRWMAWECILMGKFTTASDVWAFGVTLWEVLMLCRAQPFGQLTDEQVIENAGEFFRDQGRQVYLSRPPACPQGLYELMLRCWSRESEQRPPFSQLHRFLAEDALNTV
Description for Acinetobacter baumannii: Antibacterial activity against Acinetobacter baumannii ATCC 17978

Usually IC50 stands for the concentration at which inhibition is half-maximal. On to `O=C(NCc1coc(-c2ccccc2)n1)Nc1ccc(-c2noc(C(F)(F)F)n2)cc1`, for which the IC50 in test [1] is 40000 nM.

As to `O=C(N/N=C/c1ccc([N+](=O)[O-])o1)c1ccc(O)cc1` [NIFUROXAZIDE], the IC50 in the test on VCaP amounted to 2560 nM.

As to `CC(O)(CNC(=O)/C=C/c1ccnc2ccccc12)c1ccsc1` (configuration not stated), at Androgen receptor, the IC50 was 5000 nM.

`Cc1nnc(SCC2=C(C(=O)O)N3C(=O)[C@@H](NC(=O)c4ccc(COc5ccccc5Cl)o4)[C@H]3SC2)s1` yielded an IC50 on Speckle-type POZ protein of 4510 nM.

In general, Ki refers to a measure of affinity in units of concentration, obtained from inhibition or displacement. As to `COCc1cccc(CC(=O)Nc2ccc(-c3cn[nH]c3)cc2)c1`, the concentration for half-maximal inhibition (IC50) in the test with MOLT-4 amounted to 116 nM; in test [2] it was 70 nM; in test [4], 10 nM. This compound gave a Ki in test [3] of 38 nM.

As for `Nc1nnc(Sc2ncc([N+](=O)[O-])s2)s1`, the MIC in the test on Escherichia coli is 2 µg/mL (≈ 7.65 µM).

`COc1ccc(/C=C/c2[nH]c(=O)[nH]c(=O)c2[N+](=O)[O-])cc1OC` registered an IC50 in test [5] of 179000 nM.

A word on the EC50: it is the concentration needed to bring the measured effect to its halfway point. A lower EC50 goes with a more potent agent. As to `C[C@@H]1C=C(c2c[nH]c3ncccc23)CN(C)C1`, in [6], the EC50 came to 110 nM.

For the compound `O=C(NCc1cccc2ccccc12)NCC(O)(c1cccs1)c1cccs1`, the IC50 at Androgen receptor is 2000 nM.

Regarding `COCC(C)(NC(=O)c1ccc(N2CCCCC2)c(S(=O)(=O)N2CCCCC2)c1)C1CC1` (configuration not stated), the Ki at Cannabinoid receptor 2 was 0.9 nM.

As to `CC1(C)[C@H]2Cc3cc(-c4cc5c(cn4)[C@@H]4C[C@H](C5)C4(C)C)ncc3[C@@H]1C2`, the MIC in the test with Staphylococcus aureus [7] and against Staphylococcus aureus [8] was 8 µg/mL (≈ 23.2 µM) in each case.

The Kd is the concentration at which binding is half-saturated. Regarding `O=C(CN1CCC(CCc2ccccc2)CC1)Nc1n[nH]c2ncccc12`, the Kd in [9] is 165000 nM.

In the case of `O=C1Nc2ccccc2C2(CCN(CCc3ccc(C(F)(F)F)cc3)CC2)O1`, the MIC in the test on Acinetobacter baumannii is 2 µg/mL (≈ 5.12 µM).
